Experimental data as given in US9394297B2, “Amides as pim inhibitors” (AMGEN INC., priority 2012, dated 2016).
pIC50: −log10 of the molar value. Where two headings read alike, the source gives them in different places.

How the values were obtained:
KMS-12-BM cell lines = assay: KMS12 #2 flow cytometry assay (phospho-BAD Ser112); format: cell-based; conditions: Homo sapiens, 110 min, read-out: KMS-12-Flow IC50 IP
Pim-1 = Pim-1 (Homo sapiens (Human), UniProt P11309); assay: Pim-Mn enzyme assay (HTRF, 384-well), Pim-1; format: biochemical; conditions: Pim-1 enzyme 5 pM, ATP 1.5 μM, BAD (S112) 0.5 μM, HTRF, 22-point curve; read-out: Pim-1-Mn IC50 IP
Pim-2 = Pim-2 (Homo sapiens (Human), UniProt Q9P1W9); assay: Pim-Mn enzyme assay (HTRF, 384-well), Pim-2; format: biochemical; conditions: Pim-2 enzyme 0.5 pM, ATP 1.5 μM, BAD (S112) 0.5 μM, HTRF, 22-point curve; read-out: Pim-2-Mn IC50 IP
[1] = KMS-12-BM cells, pBAD Ser112 by flow cytometry, 110 min with compound

Chain of Pim-2 (Q9P1W9 whole entry): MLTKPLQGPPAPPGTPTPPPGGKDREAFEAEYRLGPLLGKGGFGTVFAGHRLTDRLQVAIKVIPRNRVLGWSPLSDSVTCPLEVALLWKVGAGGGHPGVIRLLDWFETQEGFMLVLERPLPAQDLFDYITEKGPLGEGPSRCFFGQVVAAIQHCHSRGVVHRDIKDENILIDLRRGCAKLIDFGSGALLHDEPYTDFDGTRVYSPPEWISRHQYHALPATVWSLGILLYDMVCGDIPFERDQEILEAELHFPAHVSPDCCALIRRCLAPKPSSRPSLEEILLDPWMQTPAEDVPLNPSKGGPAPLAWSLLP
Chain of Pim-1 (P11309 whole entry): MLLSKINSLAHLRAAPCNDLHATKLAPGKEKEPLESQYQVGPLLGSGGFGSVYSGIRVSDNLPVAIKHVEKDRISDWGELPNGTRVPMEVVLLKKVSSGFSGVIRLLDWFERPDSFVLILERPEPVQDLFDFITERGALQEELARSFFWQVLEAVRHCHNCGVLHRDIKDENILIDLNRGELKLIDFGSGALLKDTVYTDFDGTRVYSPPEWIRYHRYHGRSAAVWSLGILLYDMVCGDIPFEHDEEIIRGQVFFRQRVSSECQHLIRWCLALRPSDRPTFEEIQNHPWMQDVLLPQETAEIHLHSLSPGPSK

pIC50 (KMS-12-BM cell lines; [1])	pIC50 (Pim-1)	pIC50 (Pim-2)	Compound	pIC50 (KMS-12-BM cell lines; KMS-12-BM)
6.35			Cc1nc2cccc(-c3cc4c([nH]3)[C@H](C)NC4=O)c2nc1NCC(F)F [Example 383, (S)-2-(3-((2,2-difluoroethyl)amino)-2-methylquinoxalin-5-yl)-6-methyl-5,6-dihydropyrrolo[3,4-b]pyrrol-4(1H)-one]	
			CCn1c(NC(C)(C)C)nc2c(-c3cc4c([nH]3)[C@@H](C)NC4=O)cccc2c1=O [Example 481, (R)-2-(tert-butylamino)-3-ethyl-8-(6-methyl-4-oxo-1,4,5,6-tetrahydropyrrolo[3,4-b]pyrrol-2-yl)quinazolin-4(3H)-one]	7.70
< 4.40			Cc1nc2cccc(-c3cc4c([nH]3)[C@@H](C)NC4=S)c2nc1NC(C)(C)C [Example 332, (6R)-2-(3-(tert-butylamino)-2-methyl-5-quinoxalinyl)-6-methyl-5,6-dihydropyrrolo[3,4-b]pyrrole-4(1H)-thione]	
6.72			Cc1nc2cccc(-c3[nH]c4c(c3Cl)C(=O)NCC4)c2nc1NC(C)(C)C [Example 348, 2-(3-(tert-butylamino)-2-methyl-5-quinoxalinyl)-3-chloro-1,5,6,7-tetrahydro-4H-pyrrolo[3,2-c]pyridin-4-one]	
7.55			C[C@H]1NC(=O)c2cc(-c3cccc4c(=O)n(C5CC5)c(NC(C)(C)C)nc34)[nH]c21 [Example 475, 2-(tert-butylamino)-3-cyclopropyl-8-((6R)-6-methyl-4-oxo-1,4,5,6-tetrahydropyrrolo[3,4-b]pyrrol-2-yl)-4(3H)-quinazolinone]	
5.89			Cc1nc2cccc(-c3cc4c(n3C)C(CO)NC4=O)c2nc1NC(C)(C)C (racemic) [Example 470, (R)-2-(3-(tert-butylamino)-2-methylquinoxalin-5-yl)-6-(hydroxymethyl)-1-methyl-5,6-dihydropyrrolo[3,4-b]pyrrol-4(1H)-one and (S)-2-(3-(tert-butylamino)-2-methylquinoxalin-5-yl)-6-(hydroxymethyl)-1-methyl-5,6-dihydropyrrolo[3,4-b]pyrrol-4(1H)-one]	
5.23			Cc1nc2cccc(-c3cc4c([nH]3)CCNC4=O)c2nc1-c1c(F)cccc1Cl [Example 414, 2-(3-(2-chloro-6-fluorophenyl)-2-methyl-5-quinoxalinyl)-1,5,6,7-tetrahydro-4H-pyrrolo[3,2-c]pyridin-4-one]	
	10.54	10.13	CCn1c(NC(C)(C)C)nc2c(-c3cc4c([nH]3)[C@@H](C)NC4=O)c(F)ccc2c1=O [Example 512, (R)-2-(tert-Butylamino)-3-ethyl-7-fluoro-8-(6-methyl-4-oxo-1,4,5,6-tetrahydropyrrolo[3,4-b]pyrrol-2-yl)quinazolin-4(3H)-one]	
	9.15	8.52	Cc1nc2cccc(-c3cc4c([nH]3)CCNC4=O)c2nc1N[C@H]1CCNC1 [Example 55, 2-(2-methyl-3-((3S)-3-pyrrolidinylamino)-5-quinoxalinyl)-1,5,6,7-tetrahydro-4H-pyrrolo[3,2-c]pyridin-4-one]	
	8.51	7.98	CC#CCC1CNC(=O)c2cc(-c3cccc4nc(C)c(NC(C)(C)C)nc34)[nH]c21 (racemic) [Example 278, rac-2-(3-(tert-butylamino)-2-methyl-5-quinoxalinyl)-7-(2-butyn-1-yl)-1,5,6,7-tetrahydro-4H-pyrrolo[3,2-c]pyridin-4-one]	
	8.57	8.40	Cc1nc2cccc(-c3cc4c([nH]3)CCNC4=O)c2nc1N[C@H]1CC[C@H](O)CC1 [Example 206, 2-(3-((trans-4-hydroxycyclohexyl)amino)-2-methylquinoxalin-5-yl)-6,7-dihydro-1H-pyrrolo[3,2-c]pyridin-4(5H)-one]	
	9.80	9.72	C[C@H]1NC(=O)c2cc(-c3cccc4c(=O)n(CC(F)(F)F)c(NC(C)(C)C)nc34)[nH]c21 [Example 501, 2-(tert-butylamino)-8-((6R)-6-methyl-4-oxo-1,4,5,6-tetrahydropyrrolo[3,4-b]pyrrol-2-yl)-3-(2,2,2-trifluoroethyl)-4(3H)-quinazolinone]	
	7.27	7.35	Cc1nc2cccc(-c3cc4c([nH]3)CCNC4=O)c2nc1OCC(C)(C)C [Example 152, 2-(2-methyl-3-(neopentyloxy)quinoxalin-5-yl)-6,7-dihydro-1H-pyrrolo[3,2-c]pyridin-4(5H)-one]	
	7.85	7.82	C[C@H]1NC(=O)c2cc(-c3cccc4c(=O)n(C)c(N[C@@H]5CCC[C@H](NC(=O)OC(C)(C)C)C5)nc34)[nH]c21 (racemic) [Example 509, (rac)-tert-butyl ((cis)-3-((3-methyl-8-((R)-6-methyl-4-oxo-1,4,5,6-tetrahydropyrrolo[3,4-b]pyrrol-2-yl)-4-oxo-3,4-dihydroquinazolin-2-yl)amino)cyclohexyl)carbamate]	
	8.51	8.70	Cn1c(Nc2ccccc2)nc2c(-c3cc4c([nH]3)CCNC4=O)cccc2c1=O [Example 266, 3-methyl-8-(4-oxo-4,5,6,7-tetrahydro-1H-pyrrolo[3,2-c]pyridin-2-yl)-2-(phenylamino)quinazolin-4(3H)-one]	
	7.36	7.16	CC(=O)N1CCC[C@@H](Nc2nc3c(-c4cc5c([nH]4)CCNC5=O)cccc3nc2C)C1 [Example 241, 2-(3-(((3R)-1-acetyl-3-piperidinyl)amino)-2-methyl-5-quinoxalinyl)-1,5,6,7-tetrahydro-4H-pyrrolo[3,2-c]pyridin-4-one]	
	8.70	8.23	Cc1nc2cccc(-c3cc4c([nH]3)CCNC4=O)c2nc1NC1CNC1 [Example 150, 2-(3-(azetidin-3-ylamino)-2-methylquinoxalin-5-yl)-6,7-dihydro-1H-pyrrolo[3,2-c]pyridin-4(5H)-one]	
	8.40	8.12	C[C@H]1NC(=O)c2cc(-c3cccc4c(N)nc(NC(C)(C)C)nc34)[nH]c21 [Example 484, (6R)-2-(4-amino-2-(tert-butylamino)-8-quinazolinyl)-6-methyl-5,6-dihydropyrrolo[3,4-b]pyrrol-4(1H)-one]	
	9.59	9.22	Cc1nc2cccc(-c3[nH]c4c(c3Cl)C(=O)N[C@@H]4C)c2nc1NC1(C)CC1 [Example 454, (R)-3-chloro-6-methyl-2-(2-methyl-3-((1-methylcyclopropyl)amino)quinoxalin-5-yl)-5,6-dihydropyrrolo[3,4-b]pyrrol-4(1H)-one]	
	8.51	8.77	CCCCNc1nc2c(-c3cc4c([nH]3)CCNC4=O)cccc2nc1C [Example 159, 2-(3-(butylamino)-2-methylquinoxalin-5-yl)-6,7-dihydro-1H-pyrrolo[3,2-c]pyridin-4(5H)-one]	
	9.14	8.56	C[C@H]1NC(=O)c2cc(-c3cccc4c(=O)n(-c5cccnc5)c(NC(C)(C)C)nc34)[nH]c21 [Example 482, 2-(tert-butylamino)-8-((6R)-6-methyl-4-oxo-1,4,5,6-tetrahydropyrrolo[3,4-b]pyrrol-2-yl)-3-(3-pyridinyl)-4(3H)-quinazolinone]	

Compound	pIC50 (KMS-12-BM cell lines; [1])	pIC50 (Pim-1)	pIC50 (Pim-2)	pIC50 (KMS-12-BM cell lines; KMS-12-BM)
Cc1nc2cccc(-c3cc4c([nH]3)CCNC4=O)c2nc1NC(C)(C)CCS(C)(=O)=O [Example 338, 2-(3-((1,1-dimethyl-3-(methylsulfonyl)propyl)amino)-2-methyl-5-quinoxalinyl)-1,5,6,7-tetrahydro-4H-pyrrolo[3,2-c]pyridin-4-one]	4.84			
